# Measured values: US12673039B2, “Methods of inducing autophagy using coumarin derivatives and related compounds” (Buck Institute for Research on Aging, priority 2019, dated 2026)
# Target: T1, DAF-12 (Caenorhabditis elegans, UniProt G5EFF5)
# T1 construct: expressed in transfected cells; host or cells: HEK293T
# T1 sequence (G5EFF5 516-753 limits assumed): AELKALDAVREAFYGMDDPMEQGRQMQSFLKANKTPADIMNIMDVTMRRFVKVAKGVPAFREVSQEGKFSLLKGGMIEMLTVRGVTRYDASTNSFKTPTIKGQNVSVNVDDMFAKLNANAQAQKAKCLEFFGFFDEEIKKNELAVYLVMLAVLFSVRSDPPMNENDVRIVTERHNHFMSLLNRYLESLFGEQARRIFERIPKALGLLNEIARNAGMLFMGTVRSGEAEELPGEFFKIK
# Assay: Mammalian one-hybrid DAF-12 activity assay (HEK293T)
# Type: cell-based, human
# Method: FIG. 10 illustrates that coumarin 106 (“C1”, “AIC106”) inhibits induction of the worm FXR homologue DAF-12. The ability of C1 (10 μM) to inhibit activation of the FXR worm homologue DAF-12 by its ligand dafachronic acid (Df acid); values are fold activity induction versus untreated controls; ****p<0.01 versus GW; **p<0.05 versus GW.
# FIG. 22, panels A-H: AIC106-induced HLH-30 expression is mediated by the nuclear hormone receptor DAF-12. Panel A) The upstream promoter region (2 kB) of hlh-30 was analyzed by JASPAR CORE database to determine DAF-12 binding sites (1: SEQ ID NO:1, 2: 1: SEQ ID NO:2, 3: SEQ ID NO:3, 4: SEQ ID NO:4, 5: SEQ ID NO:5, 6: SEQ ID NO:6, 7: SEQ ID NO:7, 8: SEQ ID NO:8, 9: SEQ ID NO:9, 10: SEQ ID NO:10, 11: SEQ ID NO:11, 12: SEQ ID NO:12). Panel B) Relative fold change in mRNA of hlh-30 compared to DMSO-control was quantified using qRT-PCR in young adult wild-type N2 and daf-12(rh61rh411) worms post-24 hours treatment with AIC106. [N=3 independent experiments (mean±SD). **p<0.01, by one-way ANOVA with Sidak's multiple comparisons test]. Panel C) Effects of AIC106 on DAF-12 activity was determined in a mammalian one-hybrid assay by quantifying changes in the luciferase activity of DAF-12 ligand (dafachronic acid, DA) induced treatment. [N=3 independent experiments (mean±SD). *p<0.05 **p<0.01 and ***p<0.001, by one-way ANOVA with Tukey's multiple comparisons test]. Panel D) Schematic diagram showing that addition of AIC106 or inhibition of DAF-12 ligand synthesis, which leads to un-liganded DAF-12 may result in enhanced HLH-30 expression. Panel E) Dafadine-A (DFA), a specific inhibitor of key enzyme required for synthesis of DAF-12 ligand induces HLH-30 expression. Immunoblot for GFP was performed on protein lysate of HLH-30; GFP (MAH235) young adult worms treated with DFA or DMSO-control for 24 hours. Panel F) Protection against mitochondrial toxin (FCCP) was determined by quantifying survival of young adult worms treated 24 hours with DFA or DMSO-control. [N=3 independent experiments (mean±SD). **p<0.01, by two-way ANOVA with Tukey's multiple comparisons test]. Panel G) Motor function in day-7 NL5901 worms were quantified by scoring number of thrashes for an individual worm over the period of 30 seconds (dots) in DFA and DMSO-control treatment. [N=3 independent experiments (mean±SD). **p<0.01, by unpaired t-test] […] [N=3 independent experiments (mean±SD). *p<0.05, by one-way ANOVA with Tukey's multiple comparisons test].
# FIG. 29, panels A-C: AIC106 modulates DAF-12 activity. […] Luciferase activity was measured to quantify DAF-12 activity. Panel C) Dose dependent increase in DAF-12 activity after treatment with known DAF-12 ligand, dafachronic acid (DA) was determined by quantifying luciferase activity. […]
compound,measurement,setting,value
"O=c1oc2c3c4c(cc2c2c1CCC2)CCCN4CCC3 [C1, 2,3,6,7,10,11-Hexahydro-1H,5H-cyclopenta(3,4)(1)benzopyrano(6,7,8-ij)quinolizin-12(9H)-one]",activation of DAF-12 elicited by dafachronic acid,C1 10 μM (FIG. 10),inhibit activation of the FXR homologue DAF-12
same,DAF-12 activity (luciferase),compound alone,did not increase DAF-12 activity
same,DA-induced DAF-12 activity,in combination with dafachronic acid,dose-dependent suppression of DA-induced DAF-12 activity
